Source: patent US20100184783A1, “COMBINATION FOR USE IN THE TREATMENT OF INFLAMMATORY ATHEROSCLEROSIS COMPRISING A MAST CELL INHIBITOR AND A PPAR GAMMA AGONIST” (priority 2007, published 2010)

Test system: human macrophage cell-line MonoMac-6 (MM6)
Test: Inhibition of macrophage proliferation (MM6 cell proliferation, WST-1 reagent)
Format: cell-based
Settings: 46 hours, mean, n=5
Description: Cells from the human macrophage cell-line MonoMac-6 (MM6) (Ziegler-Heitbrock et al, Int. J. Cancer, 41, 456 (1988)) were cultured (37° C./5% CO2) in RPMI-1640 medium supplemented with 1 mM sodium pyruvate, 1×nonessential amino acids, 10 μg/mL insulin, 1 mM oxalacetic acid, 100 units/mL penicillin, 100 μg/mL streptomycin and 10% (v/v) fetal bovine serum. At the start of the experiment, MM6 cells were seeded in 96-well plates at a density of 1>10^5 cells/mL (100 μL per well). Proliferation of the MM6 cells was measured using the Cell Proliferation Reagent WST-1 (Roche Diagnostics Scandinavia AB, Bromma, Sweden) or by cell counting using a microscope. The WST-1 reagent is designed to be used for spectrophotometric quantification of e.g. cell growth in proliferation assays and was used according to the manufacturers' instructions. The wavelength for measuring absorbance was 450 nm. Stock solutions of pemirolast (potassium salt; purchased from American Custom Chemicals Corporation, San Diego, USA) were made in sterile saline. Pioglitazone (HCl salt; purchased from AK Scientific, Inc., Mountain View, Calif., USA) was dissolved in DMSO and then diluted in sterile saline leading to final DMSO concentrations in the MM6 incubations of 0.003%, 0.01% and 0.03% for the final pioglitazone concentrations of 0.1 μM, 0.3 μM and 1 μM, respectively. The effects of treatment with pioglitazone (alone and in combination) on MM6 proliferation were compared with control treatments containing DMSO at concentrations corresponding to the DMSO concentrations used in the different respective pioglitazone treatments. Untreated MM6 cells increased from 1×10^5 cells/mL at the start of the experiment to 1.4×10^5±0.06×10^5 cells/mL and 2.3×10^5±0.10×10^5 cells/mL after 24 and 48 hours, respectively (mean values±sem, n=4 for each of the three time-points). Pemirolast and/or pioglitazone were added at the start of the experiments and 46 hours later the effects of the drugs on MM6 cell proliferation were studied using the WST-1 reagent described above. The WST-1 reagent was added at 44 hours after start of the experiments and the average absorbance of untreated control cells exposed to the WST-1 reagent was 0.89 (n=5).

SMILES | MM6 proliferation, of the proliferation of untreated control cells (10 μM pemirolast) | MM6 proliferation, of the proliferation of untreated control cells (30 μM pemirolast) | MM6 proliferation, of the proliferation of untreated control cells (100 μM pemirolast) | MM6 proliferation, of the proliferation of untreated control cells (0.1 μM pioglitazone, control with DMSO) | MM6 proliferation, of the proliferation of untreated control cells (0.3 μM pioglitazone, control with DMSO) | MM6 proliferation, of the proliferation of untreated control cells (1 μM pioglitazone, control with DMSO)
Cc1cccn2c(=O)c(-c3nnn[nH]3)cnc12 [pemirolast] | 101% | 124% | 102% | – | – | –
CCc1ccc(CCOc2ccc(CC3SC(=O)NC3=O)cc2)nc1 (stereo not drawn) [pioglitazone] | – | – | – | 91% | 96% | 88%
